Results reported in patent publication US20250346606A1, “CAMPTOTHECIN COMPOUND, PREPARATION METHOD THEREFOR, AND APPLICATION THEREOF” (SICHUAN KELUN-BIOTECH BIOPHARMACEUTICAL CO., LTD., priority 2021, published 2025).
Where two headings read alike, the source gives them in different places.

Key:
NCI-N87 cells = test: Inhibitory effect of compounds on NCI-N87 cell proliferation; type: cell-based, Human
Experimental: (1) Cell plating: First, tumor cells NCI-N87 were cultured in corresponding medium, then digested with trypsin, centrifuged, resuspended, and counted, and the cells were adjusted to an appropriate concentration for plating.
(§1) Co-incubation of the compound of the present disclosure and tumor cells: after the cells adhered to the wall, the medium was removed, and the diluted bioactive molecule (the compound of the present disclosure) was added to the wells of the above plate, and incubated for 72 h.
(§2) In vitro cell viability detection: After the incubation, 50 μL of Cell Counting-Lite™ 2.0 reagent (Vazyme/Novazyme) was added to each well, shaken and mixed well in the dark, reacted for 10 minutes, and then the detection was carried out with a microplate reader (manufacturer: BMG, Model: PHERAStar-FS) for reading. The background RLU was obtained by using cell-free medium (with Cell Counting-Lite™), and the vehicle RLU was obtained by using cell-containing medium (with Cell Counting-Lite™). Cell inhibition rate=1−(sample RLU−background RLU)/(solvent RLU−background RLU)×100%. According to the four-parameter model fitting curve, the half maximal inhibitory concentration (IC50) of the compound was calculated, and the detection results were shown in Table 12.

HT29 cells = test: Inhibitory effect of compounds on HT29 cell proliferation; type: cell-based, Human; conditions: read-out: IC50, inhibitory activity on HT29 cell proliferation
Experimental: (1) Cell plating: First, tumor cells HT29 were cultured in corresponding medium, then digested with trypsin, centrifuged, resuspended, and counted, and the cells were adjusted to an appropriate concentration for plating.
as §1
as §2, with “2.” for “12.”

Jeko-1 cells = test: Inhibitory effect of compounds on Jeko-1 cell proliferation; type: cell-based, Human; conditions: read-out: IC50, inhibitory activity on Jeko-1 cell proliferation
Experimental: (1) Cell plating: First, tumor cells Jeko-1 were cultured in corresponding medium, then digested with trypsin, centrifuged, resuspended, and counted, and the cells were adjusted to an appropriate concentration for plating.
as §1
as §2, with “20.” for “12.”

NCI-H358 cells = test: Inhibitory effect of compounds on NCI-H358 cell proliferation; type: cell-based, Human
Experimental: (1) Cell plating: First, tumor cells NCI-H358 were cultured in corresponding medium, then digested with trypsin, centrifuged, resuspended, and counted, and the cells were adjusted to an appropriate concentration for plating.
as §1
as §2, with “10.” for “12.”

SKOV-3 cells = test: Inhibitory effect of compounds on SKOV-3 cell proliferation; type: cell-based, Human; conditions: Homo sapiens, SK-OV-3, 72 h, read-out: IC50, inhibitory activity on SKOV-3 cell proliferation
Experimental: (1) Cell plating: First, tumor cells SKOV-3 were cultured in corresponding medium, then digested with trypsin, centrifuged, resuspended, and counted, and the cells were adjusted to an appropriate concentration for plating.
as §1
as §2, with “8.” for “12.”

HCC1806 cells = test: Inhibitory effect of compounds on HCC1806 cell proliferation; type: cell-based, Human
Experimental: (1) Cell plating: First, tumor cells HCC1806 were cultured in corresponding medium, then digested with trypsin, centrifuged, resuspended, and counted, and the cells were adjusted to an appropriate concentration for plating.
as §1
as §2, with “6.” for “12.”

MDA-MB-453 cells = test: Inhibitory effect of compounds on MDA-MB-453 cell proliferation; type: cell-based; conditions: MDA-MB-453 human breast cancer cells, 72 h incubation, Cell Counting-Lite 2.0
Experimental: (1) Cell plating: First, tumor cells MDA-MB-453 were cultured in corresponding medium, then digested with trypsin, centrifuged, resuspended, and counted, and the cells were adjusted to an appropriate concentration for plating.
as §1
as §2, with “22.” for “12.”

[1] = NCI-N87 human gastric cancer cells, 72 h incubation, Cell Counting-Lite 2.0, read-out: IC50, inhibitory activity on NCI-N87 cell proliferation
[2] = Jeko-1 human mantle cell lymphoma cells, 72 h incubation, Cell Counting-Lite 2.0
[3] = Homo sapiens, NCI-H358, 72 h, read-out: IC50, inhibitory activity on NCI-H358 cell proliferation, NCI-H358 human non-small cell lung cancer cells, 72 h incubation, Cell Counting-Lite 2.0
[4] = HCC1806 human breast squamous carcinoma cells, 72 h incubation, Cell Counting-Lite 2.0, read-out: IC50, inhibitory activity on HCC1806 cell proliferation
[5] = NCI-H358 human non-small cell lung cancer cells, 72 h incubation, Cell Counting-Lite 2.0, read-out: IC50, inhibitory activity on NCI-H358 cell proliferation
[6] = read-out: IC50, inhibitory activity on HCC1806 cell proliferation, HCC1806 human breast squamous carcinoma cells, 72 h incubation, Cell Counting-Lite 2.0
[7] = read-out: IC50, inhibitory activity on NCI-N87 cell proliferation, NCI-N87 human gastric cancer cells, 72 h incubation, Cell Counting-Lite 2.0
[8] = Homo sapiens, HCC1806, 72 h, read-out: IC50, inhibitory activity on HCC1806 cell proliferation, HCC1806 human breast squamous carcinoma cells, 72 h incubation, Cell Counting-Lite 2.0
[9] = Homo sapiens, NCI-N87, 72 h, read-out: IC50, inhibitory activity on NCI-N87 cell proliferation, NCI-N87 human gastric cancer cells, 72 h incubation, Cell Counting-Lite 2.0

SMILES: CC[C@@]1(O)C(=O)OCc2c1cc1n(c2=O)Cc2c-1nc1cc(F)c(Cl)c3c1c2[C@H](NC(=O)CO)CC3 [Example 9 (3-4-B), N-((1R,9S)-4-Chloro-9-ethyl-5-fluoro-9-hydroxy-10,13-dioxo-2,3,9,10,13,15-hexahydro-1H, 12H-benzo[de]pyrano[3′,4:6,7]indolizino[1,2-b]quinolin-1-yl)-2-hydroxyacetamide]
- IC50 (NCI-N87 cells; [1]): 6.51 nM
- IC50 (HT29 cells; HT29 human colon cancer cells, 72 h incubation, Cell Counting-Lite 2.0): 4.98 nM
- IC50 (Jeko-1 cells; [2]): 0.15 nM

SMILES: CC[C@@]1(O)C(=O)OCc2c1cc1n(c2=O)Cc2c-1nc1cc3c(cc1c2CCNC1CC1)OCO3 [Example 21 (4-14), (S)-14-(2-(Cyclopropylamino)ethyl)-7-ethyl-7-hydroxy-7H-[1,3]dioxolano[4,5-g]pyrano[3′,4′:6,7]indolizino[1,2-b]quinolin-8,11 (10H,13H)-dione]
- IC50 (NCI-H358 cells; [3]): 12 nM
- IC50 (HT29 cells; Homo sapiens, HT-29, 72 h): 0.56 nM
- IC50 (SKOV-3 cells): 2.16 nM
- IC50 (Jeko-1 cells; Homo sapiens, JeKo-1, 72 h): 0.34 nM

SMILES: CC[C@@]1(O)C(=O)OCc2c1cc1n(c2=O)Cc2c-1nc1cc(Cl)c(C)c3c1c2[C@@H](NC[C@@H](C)O)CC3 [Example 24 (2-27-A), (2R)—N-((1S,9S)-5-Chloro-9-ethyl-9-hydroxy-4-methyl-10,13-dioxo-2,3,9,10,13,15-hexahydro-1H,12H-benzo[de]pyrano[3′,4:6,7]indolizino[1,2-b]quinolin-1-yl)-2-hydroxypropylamine]
- IC50 (HCC1806 cells; [4]): 4.55 nM
- IC50 (MDA-MB-453 cells): 11.8 nM
- IC50 (NCI-N87 cells; [1]): 8.32 nM
- IC50 (NCI-H358 cells; [5]): 56.5 nM

SMILES: CC[C@@]1(O)C(=O)OCc2c1cc1n(c2=O)Cc2c-1nc1cc(F)c(Cl)c3c1c2C(NC(=O)C(O)C1CC1)CC3 (single isomer, unassigned) [Example 16 (3-12-D)]
- IC50 (HCC1806 cells; [6]): 1.53 nM
- IC50 (MDA-MB-453 cells): 3.98 nM
- IC50 (NCI-N87 cells; [7]): 3.03 nM
- IC50 (NCI-H358 cells; read-out: IC50, inhibitory activity on NCI-H358 cell proliferation, NCI-H358 human non-small cell lung cancer cells, 72 h incubation, Cell Counting-Lite 2.0): 20.8 nM

SMILES: CC[C@@]1(O)C(=O)OCc2c1cc1n(c2=O)Cc2c-1nc1cc(F)c(Cl)c3c1c2[C@@H](NC[C@@H](C)O)CC3 (single isomer, unassigned) [Example 25 (3-26-A)]
- IC50 (HCC1806 cells; [8]): 1.27 nM
- IC50 (MDA-MB-453 cells; Homo sapiens, MDA-MB-453, 72 h): 3.95 nM
- IC50 (NCI-N87 cells; [9]): 1.23 nM
- IC50 (NCI-H358 cells; [3]): 31.6 nM

SMILES: CC[C@@]1(O)C(=O)OCc2c1cc1n(c2=O)Cc2c-1nc1cc(F)c(Cl)c3c1c2C(NC(=O)C(O)C1CC1)CC3 (single isomer, unassigned) [Example 16 (3-12-A)]
- IC50 (HCC1806 cells; [6]): 0.16 nM
- IC50 (MDA-MB-453 cells): 0.47 nM
- IC50 (NCI-N87 cells; [7]): 0.44 nM
- IC50 (NCI-H358 cells; [3]): 15.4 nM

SMILES: C=C[C@@H](O)C(=O)N[C@H]1CCc2c(C)c(F)cc3nc4c(c1c23)Cn1c-4cc2c(c1=O)COC(=O)[C@]2(O)CC [Example 2 (1-7-B)]
- IC50 (NCI-N87 cells; [1]): 5.48 nM
- IC50 (NCI-H358 cells; [5]): 51.5 nM
- IC50 (Jeko-1 cells; [2]): 0.66 nM

SMILES: CC[C@@]1(O)C(=O)OCc2c1cc1n(c2=O)Cc2c-1nc1cc(F)c(C3CC3)c3c1c2[C@@H](NC(=O)CO)CC3 [Example 19 (5-22-A), N-((1S,9S)-4-cyclopropyl-9-ethyl-5-fluoro-9-hydroxy-10,13-dioxo-1,2,3,9,10,12,13,15-tetrahydrobenzo[de]pyrano[3′,4′:6,7]indolizino[1,2-b]quinolin-1-yl)-2-hydroxyacetamide]
- IC50 (HCC1806 cells; [4]): 2.57 nM
- IC50 (MDA-MB-453 cells): 7.34 nM
- IC50 (NCI-N87 cells; [1]): 3.35 nM
- IC50 (NCI-H358 cells; [5]): 29.9 nM

SMILES: C=C[C@H](O)C(=O)N[C@H]1CCc2c(C)c(F)cc3nc4c(c1c23)Cn1c-4cc2c(c1=O)COC(=O)[C@]2(O)CC [Example 2 (1-7-A)]
- IC50 (NCI-N87 cells; [1]): 2.7 nM
- IC50 (NCI-H358 cells; [5]): 11.4 nM
- IC50 (Jeko-1 cells; [2]): 0.15 nM

SMILES: CC[C@@]1(O)C(=O)OCc2c1cc1n(c2=O)Cc2c-1nc1cc(F)c(C)c3c1c2[C@@H](CN)CC3 (single isomer, unassigned) [Example 13 (5-7-A)]
- IC50 (NCI-N87 cells; [9]): 6.03 nM
- IC50 (HT29 cells; Homo sapiens, HT-29, 72 h): 3.13 nM
- IC50 (Jeko-1 cells; Homo sapiens, JeKo-1, 72 h): 0.16 nM

SMILES: CC[C@@]1(O)C(=O)OCc2c1cc1n(c2=O)Cc2c-1nc1cc(F)c(Cl)c3c1c2[C@H](NC[C@H](C)O)CC3 (single isomer, unassigned) [Example 17 (3-7-B)]
- IC50 (HCC1806 cells; [8]): 1.94 nM
- IC50 (MDA-MB-453 cells; Homo sapiens, MDA-MB-453, 72 h): 4.87 nM
- IC50 (NCI-N87 cells; [9]): 4.54 nM
- IC50 (NCI-H358 cells; [3]): 22.2 nM
